Like-named read-outs stand apart in the source and are kept apart here.
Columns and labels:
[1] = Rat PK: plasma prodrug concentration after intramuscular (IM) dosing of xanomeline prodrugs at 5 mg/kg (Example A-4); assay type: in vivo, male Sprague-Dawley (SD) rats; conditions: male, Sprague-Dawley, IM 5 mg/kg of xanomeline, Mean
Experimental: (§1) • Step 1: A stock solution of the compound(s) were prepared to 1 mg/ml in DMSO • Step 2: A 10,000 ng/mL matched matrix standard was prepared using the stock solution(s) • Step 3: Calibration standards in matched matrix were prepared between 10,000 ng/ml and 0.5 ng/mL using serial dilution • Step 4: QC samples were prepared in matched matrix at 4000, 800, 400, 40 and 10 ng/mL
(§2) • Step 1: Add 10 μL of the standards, QCs and samples to a 96-well plate (extraction plate) • Step 2: To each standard, QC and test sample, add 100 μL of ISZ • Step 3: Sonicate for 2 min then mix the plate for approximately 2 min at 1200 rpm on a plate shaker • Step 4: Centrifuge the plate at 3000 rpm for 5 min • Step 5: Add 50 μL 0.1% formic acid in UP H2O to wells of a new 96-well plate • Step 6: Transfer 50 μL extracted sample to relevant position in second 96-well plate • Step 7: Mix at 1200 rpm for 2 min • Step 8: Heat seal and analyse on the LC-MS/MS system • Instrument: Xevo TQ-D with CTC Autosampler
(§3) Samples were sent for method optimization and measurement of prodrug via unique calibration lines and following acceptance QC's. Dose formulation concentrations were also measured, and PK parameters were determined (Cmax (ng/mL), Tmax (hr), Cl (ml/min/kg), Vdss (L/kg), t½ (hr), AUC0-t (ng/mL*hr), AUC0-inf (ng/mL*hr), MRT (hr), Bioavailability (% F) where warranted) using WinNon Lin software. Data (including bioanalytical results and assay performance) were reported in a tabulated format and QC'd.
Formulation for IM administration: All compounds were formulated as solutions or fine suspensions in saline at 12.5 mg API/mL. This provided doses of 5 mg/kg (equivalent of xanomeline) when given to a 250 g rat in a 100 μL dosing volume.
The pharmacokinetic properties of the synthesized xanomeline prodrugs after intramuscular administration in a rat model were assessed. The concentration of prodrug was measured in each rat at various sampling timepoints after intramuscular administration of the synthesized xanomeline prodrugs to rats.
Dose formulations were made at equivalent concentrations of active compound (xanomeline) adjusted for molecular weight of the compounds. The synthesized xanomeline prodrugs were dosed at 5 mg/kg intramuscular (IM) nominal dose. Nominal doses were used in PK parameter determinations.

[2] = Rat PK: plasma prodrug concentration after intravenous (IV) dosing of xanomeline prodrugs at 1 mg/kg (Example A-6); assay type: in vivo, male Sprague-Dawley (SD) rats; conditions: male, Sprague-Dawley, IV 1 mg/kg of xanomeline; for concentration at 0.5 h: 0.500 h; for concentration at 0.75 h: 0.750 h
Experimental: as §1, §2, §3
Compound was dissolved in DMSO:HPCD (20% w/v in water) [10:90] 0.5 mg API/mL to provide doses of 1 mg/kg when administered IV in a 2 mL/kg dosing volume.
The pharmacokinetic properties of the synthesized xanomeline prodrugs after intravenous administration in a rat model were assessed. The concentration of prodrug was measured in each rat at various sampling timepoints after intravenous administration of the synthesized xanomeline prodrugs to rats.
Dose formulations were made at equivalent concentrations of active compound (xanomeline) adjusted for molecular weight of the compounds. The synthesized xanomeline prodrugs were dosed at 1 mg/kg intravenous (IV) nominal dose. Nominal doses were used in PK parameter determinations.

[3] = iv, 1 mg/kg, Mean, read-out: Prodrug Plasma Concentrations Following Intravenous Dosing
[4] = iv, 1 mg/kg, individual animals, read-out: Prodrug Plasma Concentrations Following Intravenous Dosing

Compound: CCCCCCOc1nsnc1C1=CCC[N+](C)(C(CC)OC(=O)C(C)(C)C)C1 (stereo not drawn) [Compound 352]
- Tmax ([1]; analyte prodrug): 30 min
- concentration at 2 h ([1]; intramuscular, 5 mg/kg, 2.00 h, read-out: Prodrug Plasma Concentrations Following Intramuscular Dosing): 71.3 ng/mL
- concentration at 4 h ([1]; intramuscular, 5 mg/kg, 4.00 h, read-out: Prodrug Plasma Concentrations Following Intramuscular Dosing): 33.4 ng/mL
- concentration at 8 h ([1]; intramuscular, 5 mg/kg, 8.00 h, read-out: Prodrug Plasma Concentrations Following Intramuscular Dosing): 18.6 ng/mL
- Tmax ([2]; analyte prodrug, individual animals): 15 min
- concentration at 0.25 h ([2]; iv, 1 mg/kg, 0.250 h, Mean, read-out: Prodrug Plasma Concentrations Following Intravenous Dosing): 33.2 ng/mL
- concentration at 0.5 h [2, 3]: 12.9 ng/mL
- concentration at 0.5 h [2, 4]: 10.3 ng/mL
- concentration at 0.75 h [2, 3]: 6.01 ng/mL
- concentration at 0.75 h [2, 4]: 6.01 ng/mL
- concentration at 1 h [2, 3]: 5.37 ng/mL
- concentration at 1 h [2, 4]: 5.58 ng/mL
- Cmax ([2]; iv, 1 mg/kg, analyte prodrug, Mean): 33.2 ng/mL
- AUC(0-inf) ([2]; iv, 1 mg/kg, analyte prodrug, Mean, read-out: Prodrug AUCINF_obs): 44.4 ng·h/mL
- AUC(0-t) ([2]; iv, 1 mg/kg, analyte prodrug, Mean, read-out: Prodrug AUClast): 42.4 ng·h/mL
